# Assay results: patent US9204653B2, “5-fluoro pyrimidine derivatives” (DOW AGROSCIENCES LLC, priority 2008, dated 2015)
# Read-outs that look alike come from different tables or passages of the source.
# Tested on: Mycosphaerella graminicola; Anamorph: Septoria tritici; Bayer Code SEPTTR
# Assay: Leaf blotch of wheat, foliar fungicide treatment, one day protectant (1DP) or three day curative (3DC)
# Assay type: in vivo, Septoria tritici on wheat plants (variety Yuma)
# Conditions: Zymoseptoria tritici
# [1] = 24 h, one day protectant (1DP), 25 ppm (first 1DP column), percent control rating, read-out: SETTTR 1DP 25 ppm
# [2] = 24 h, one day protectant (1DP), 25 ppm as printed (second 1DP column), percent control rating, read-out: SETTTR 1DP 25 ppm
# [3] = 72 h, three day curative (3DC), 25 ppm, percent control rating, read-out: SEPTTR 3DC 25 ppm
# [4] = 72 h, three day curative (3DC), percent control rating, read-out: SEPTTR 3DC 100 ppm
# [5] = 24 h, one day protectant (1DP), 25 ppm, percent disease control rating, read-out: SETTTR 1DP 25 ppm
# [6] = 24 h, one day protectant (1DP), percent disease control rating, read-out: SEPTTR 1DP 100 ppm
# [7] = 72 h, three day curative (3DC), 25 ppm, percent disease control rating, read-out: SEPTTR 3DC 25 ppm
# [8] = 72 h, three day curative (3DC), percent disease control rating, read-out: SEPTTR 3DC 100 ppm
# [9] = 24 h, one day protectant (1DP), 25 ppm, rating of percent disease control, read-out: SETTTR 1DP 25 ppm
# [10] = 24 h, one day protectant (1DP), rating of percent disease control, read-out: SEPTTR 1DP 100 ppm
# [11] = 72 h, three day curative (3DC), 25 ppm, rating of percent disease control, read-out: SEPTTR 3DC 25 ppm
# [12] = 72 h, three day curative (3DC), rating of percent disease control, read-out: SEPTTR 3DC 100 ppm
# [13] = 24 h, one day protectant, 25 ppm, rating of percent disease control, read-out: SETTTR 1DP 25 ppm
# [14] = 24 h, one day protectant, rating of percent disease control, read-out: SEPTTR 1DP 100 ppm
# [15] = 72 h, three day curative, 25 ppm, rating of percent disease control, read-out: SEPTTR 3DC 25 ppm
# [16] = 72 h, three day curative, rating of percent disease control, read-out: SEPTTR 3DC 100 ppm
structure (smiles),measurement,setting,value
Fc1ccc(COc2ncc(F)c(NNc3nccc(C(F)(F)F)n3)n2)cc1 [Compound 1043],pest or weed control at 25 ppm,[1],0 to 25%
same,pest or weed control at 25 ppm,[2],0 to 25%
same,pest or weed control at 25 ppm,[3],0 to 25%
same,pest or weed control at 100 ppm,[4],0 to 25%
Fc1ccc(COc2ncc(F)c(NCc3ccc(Cl)cc3)n2)cc1 [Compound 840],pest or weed control at 50 ppm,"24 h, % disease control rating, one day protectant, 50 ppm",51 to 75%
same,pest or weed control at 200 ppm,"24 h, % disease control rating, one day protectant, 200 ppm",76 to 100%
"Fc1ccc(COc2ncc(F)c(NCOCc3ccccc3)n2)cc1 [Compound 18, Benzyloxymethyl[5-fluoro-2-(4-fluorobenzyloxy)pyrimidin-4-yl]amine]",pest or weed control at 25 ppm,[5],51 to 75%
same,pest or weed control at 100 ppm,[6],76 to 100%
same,pest or weed control at 25 ppm,[7],51 to 75%
same,pest or weed control at 100 ppm,[8],51 to 75%
CCCCCOC(=O)Nc1nc(OCc2cccc(OC)c2)ncc1F [Compound 988],pest or weed control at 25 ppm,[1],76 to 100%
same,pest or weed control at 25 ppm,[2],76 to 100%
same,pest or weed control at 25 ppm,[3],76 to 100%
same,pest or weed control at 100 ppm,[4],76 to 100%
"Fc1ccc(COc2ncc(F)c(/N=C/N3CCCC3)n2)cc1 [Compound 21, [5-Fluoro-2-(4-fluorobenzyloxy)pyrimidin-4-yl]-[1-pyrrolidin-1-yl-methylidene]amine]",pest or weed control at 25 ppm,[5],76 to 100%
same,pest or weed control at 100 ppm,[6],76 to 100%
same,pest or weed control at 25 ppm,[7],76 to 100%
same,pest or weed control at 100 ppm,[8],76 to 100%
Fc1cnc(OCc2cccs2)nc1NCOCc1ccccc1 [Compound 506],pest or weed control at 25 ppm,[9],26 to 50%
same,pest or weed control at 100 ppm,[10],76 to 100%
same,pest or weed control at 25 ppm,[11],0 to 25%
same,pest or weed control at 100 ppm,[12],0 to 25%
COc1cc(F)c(COc2ncc(F)c(N)n2)cn1 [Compound 185],pest or weed control at 25 ppm,[9],76 to 100%
same,pest or weed control at 100 ppm,[10],76 to 100%
same,pest or weed control at 25 ppm,[11],76 to 100%
same,pest or weed control at 100 ppm,[12],76 to 100%
Nc1nc(OCc2ccc3ccccc3n2)ncc1F [Compound 465],pest or weed control at 25 ppm,[9],76 to 100%
same,pest or weed control at 100 ppm,[10],76 to 100%
same,pest or weed control at 25 ppm,[11],76 to 100%
same,pest or weed control at 100 ppm,[12],76 to 100%
Cc1ccc(COc2ncc(F)c(NNC3CCCCC3)n2)cc1 [Compound 244],pest or weed control at 25 ppm,[9],0 to 25%
same,pest or weed control at 100 ppm,[10],76 to 100%
same,pest or weed control at 25 ppm,[11],0 to 25%
same,pest or weed control at 100 ppm,[12],76 to 100%
O=C(NNc1nc(OCc2ccccc2)ncc1F)c1ccccc1 [Compound 293],pest or weed control at 25 ppm,[9],0 to 25%
same,pest or weed control at 100 ppm,[10],0 to 25%
same,pest or weed control at 25 ppm,[11],0 to 25%
same,pest or weed control at 100 ppm,[12],0 to 25%
Cc1ccc(COc2ncc(F)c(NC(=S)NCc3ccccc3F)n2)cc1 [Compound 670],pest or weed control at 25 ppm,[13],51 to 75%
same,pest or weed control at 100 ppm,[14],76 to 100%
same,pest or weed control at 25 ppm,[15],51 to 75%
same,pest or weed control at 100 ppm,[16],76 to 100%
CCCCCCOc1ncc(F)c(NC(=O)Nc2ccsc2)n1 [Compound 774],pest or weed control at 25 ppm,[9],0 to 25%
same,pest or weed control at 100 ppm,[10],0 to 25%
same,pest or weed control at 25 ppm,[11],0 to 25%
same,pest or weed control at 100 ppm,[12],0 to 25%
COc1ccccc1COc1ncc(F)c(NC(=O)c2ccccc2)n1 [Compound 676],pest or weed control at 25 ppm,[13],26 to 50%
same,pest or weed control at 100 ppm,[14],76 to 100%
same,pest or weed control at 25 ppm,[15],0 to 25%
same,pest or weed control at 100 ppm,[16],0 to 25%
Nc1nc(OCC2CC2(F)F)ncc1F (stereo not drawn) [Compound 509],pest or weed control at 25 ppm,[9],0 to 25%
same,pest or weed control at 100 ppm,[10],0 to 25%
same,pest or weed control at 25 ppm,[11],26 to 50%
same,pest or weed control at 100 ppm,[12],0 to 25%
COc1ncc(F)c(N(C)O)n1 [Compound 1066],pest or weed control at 25 ppm,[1],0 to 25%
same,pest or weed control at 25 ppm,[2],0 to 25%
same,pest or weed control at 25 ppm,[3],0 to 25%
same,pest or weed control at 100 ppm,[4],0 to 25%
Nc1nc(Oc2cccc([N+](=O)[O-])c2)ncc1F [Compound 715],pest or weed control at 25 ppm,[13],26 to 50%
same,pest or weed control at 100 ppm,[14],51 to 75%
same,pest or weed control at 25 ppm,[15],0 to 25%
same,pest or weed control at 100 ppm,[16],0 to 25%
"N#CNc1nc(OCc2ccccc2)ncc1F [Compound 963, 2-Benzyloxy-5-fluoro-pyrimidin-4-yl-cyanamide]",pest or weed control at 25 ppm,[1],0 to 25%
same,pest or weed control at 25 ppm,[2],0 to 25%
same,pest or weed control at 25 ppm,[3],26 to 50%
same,pest or weed control at 100 ppm,[4],0 to 25%
